Experimental data: ChEMBL document CHEMBL4052606, “The Bengamides: A Mini-Review of Natural Sources, Analogues, Biological Properties, Biosynthetic Origins, and Future Prospects” (J Nat Prod, 2017)

biological target: Methionine aminopeptidase 1 (Homo sapiens, UniProt P53582); experiment: Inhibition of human MetAP1; conditions: not given

Row | SMILES | IC50
1 | CO[C@@H](C(=O)N[C@H]1CC[C@@H](OC(=O)C2CCCCC2)CNC1=O)[C@H](O)[C@@H](O)[C@H](O)/C(C)=C/C(C)(C)C | > 10000 nM

tested on: HT-1080; experiment: Cytotoxicity against human HT1080 cells; conditions: not given

Row | SMILES | IC50
2 | CC(C)(C)OC(=O)Nc1cccnc1C(=O)Nc1nccs1 | 300 nM

biological target: Methionine aminopeptidase 2 (Homo sapiens, UniProt P50579); experiment: Inhibition of human MetAP2; conditions: not given
Sequence (P50579 whole entry): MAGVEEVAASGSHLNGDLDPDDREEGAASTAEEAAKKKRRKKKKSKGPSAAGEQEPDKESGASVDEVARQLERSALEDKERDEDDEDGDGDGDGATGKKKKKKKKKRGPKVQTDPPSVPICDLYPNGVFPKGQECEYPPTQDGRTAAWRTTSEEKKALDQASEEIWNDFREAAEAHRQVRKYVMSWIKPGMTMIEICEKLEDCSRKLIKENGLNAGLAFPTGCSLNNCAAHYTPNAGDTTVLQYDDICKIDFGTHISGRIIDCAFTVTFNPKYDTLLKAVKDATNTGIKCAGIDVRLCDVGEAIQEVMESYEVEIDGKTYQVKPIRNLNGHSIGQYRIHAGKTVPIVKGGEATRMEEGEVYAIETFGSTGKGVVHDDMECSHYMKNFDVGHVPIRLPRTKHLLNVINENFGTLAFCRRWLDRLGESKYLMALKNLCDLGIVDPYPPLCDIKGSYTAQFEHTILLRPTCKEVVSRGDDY

Row | IC50 | SMILES
3 | > 300000 nM | CC(C)(C)OC(=O)Nc1cccnc1C(=O)Nc1nccs1
4 | > 50000 nM | CO[C@@H](C(=O)N[C@H]1CC[C@H](OC(=O)CCCCCCCCCCC(C)C)CN(C)C1=O)[C@H](O)[C@@H](O)[C@H](O)/C=C/C(C)C
5 | 200 nM | CO[C@H]1[C@@H](OC(=O)/C=C/C=C/C=C/C=C/C(=O)O)CC[C@]2(CO2)[C@@H]1[C@@]1(C)O[C@@H]1CC=C(C)C
6 | > 100000 nM | COc1ccc(N2CCN(c3nc(-c4ccccn4)nc4ccccc34)CC2)cc1

tested on: MDA-MB-231; experiment: Cytotoxicity against human MDA-MB-231 cells; format: functional, cell-based; conditions: not given

Row | SMILES | IC50
7 | CO[C@H]1[C@@H](OC(=O)/C=C/C=C/C=C/C=C/C(=O)O)CC[C@]2(CO2)[C@@H]1[C@@]1(C)O[C@@H]1CC=C(C)C | 54 nM

tested on: HCT-116; experiment: cells; conditions: Homo sapiens, HCT-116, 96 h
Description: Antiproliferative activity against human HCT116 cells after 96 hrs

Row | SMILES | IC50
8 | CO[C@@H](C(=O)N[C@H]1CCc2ccccc2NC1=O)[C@H](O)[C@@H](O)[C@H](O)/C=C/C(C)(C)C | 44 nM
9 | CO[C@@H](C(=O)N[C@H]1CC[C@@H](OC(=O)C2CCCCC2)CNC1=O)[C@H](O)[C@@H](O)[C@H](O)/C=C/C(C)(C)C | 23 to 40 nM
10 | CO[C@@H](C(=O)N[C@H]1CC[C@@H](OC(=O)C2CCCCC2)CNC1=O)[C@H](O)[C@@H](O)[C@H](O)/C(C)=C/C(C)(C)C | 140 nM
11 | CO[C@H](C(=O)N[C@@H]1CCCCNC1=O)[C@@H](O)[C@H](O)[C@@H](O)/C=C/C(C)C | > 50000 nM
12 | CCCCCCCCCCCCCC(=O)O[C@H]1CC[C@H](NC(=O)[C@H](OC)[C@H](O)[C@@H](O)[C@H](O)/C=C/C(C)C)C(=O)NC1 [BENGAMIDE A] | 0.4 to 16 nM
13 | CO[C@@H](C(=O)N[C@H]1CCCCNC1=O)[C@H](O)[C@@H](O)[C@H](O)/C=C/C(C)C [BENGAMIDE E] | 3.8 to 600 nM

tested on: MDA-MB-435; experiment: Cytotoxicity against human MDA-MB-435 cells assessed as reduction in cell viability after 72 hrs by MTS assay; conditions: MDA-MB-435, 72 h

Row | SMILES | IC50
14 | CO[C@@H](C(=O)N[C@H]1CCc2ccccc2NC1=O)[C@H](O)[C@@H](O)[C@H](O)/C=C/C(C)(C)C | 3.8 nM
15 | CO[C@@H](C(=O)N[C@H]1CC[C@@H](OC(=O)C2CCCCC2)CNC1=O)[C@H](O)[C@@H](O)[C@H](O)/C=C/C(C)(C)C | 40 nM
16 | CC(C)/C=C/[C@@H](O)[C@H](O)[C@@H](O)[C@@H](O)C(=O)N[C@H]1CCCCNC1=O | 12000 nM
17 | CCCCCCCCCCCCCC(=O)O[C@H]1CC[C@H](NC(=O)[C@H](OC)[C@H](O)[C@@H](O)[C@H](O)/C=C/C(C)C)C(=O)NC1 [BENGAMIDE A] | 1 nM
18 | CCCCCCCCCCCCCC(=O)O[C@H]1CC[C@H](NC(=O)[C@H](OC)[C@H](O)[C@@H](O)[C@H](O)/C=C/C(C)C)C(=O)N(C)C1 [BENGAMIDE B] | 2 nM
19 | CO[C@@H](C(=O)N[C@H]1CCCCNC1=O)[C@H](O)[C@@H](O)[C@H](O)/C=C/C(C)C [BENGAMIDE E] | 4 to 7 nM
20 | CO[C@@H](C(=O)N[C@H]1CC[C@H](O)CN(C)C1=O)[C@H](O)[C@@H](O)[C@H](O)/C=C/C(C)C [BENGAMIDE F] | 3 nM

tested on: MDA-MB-435; experiment: Cytotoxicity against human MDA-MB-435 cells; format: functional, cell-based; conditions: not given

Row | SMILES | IC50
21 | CO[C@@H](C(=O)N[C@H]1CCCCN(CCOC(=O)C2CCCCC2)C1=O)[C@H](O)[C@@H](O)[C@H](O)/C=C/C(C)(C)C | 17 nM
22 | CNC(=O)[C@H](CC(C)C)NC(=O)[C@H](OC)[C@H](O)[C@@H](O)[C@H](O)/C=C/C(C)(C)C | 20000 nM
23 | CO[C@@H](C(=O)N[C@H]1CCCCNC1=O)[C@H](O)[C@@H](O)[C@H](O)/C=C/C1CCCC1 | 0.4 nM
24 | CCCCCCCCCCCCCC(=O)OCCC[C@H](NC(=O)[C@H](OC)[C@H](O)[C@@H](O)[C@H](O)/C=C/C(C)(C)C)C(=O)NC | 190 nM
25 | CO[C@H](C(=O)N[C@H]1CCCCNC1=O)[C@@H](O)[C@H](O)[C@@H](O)/C=C/C(C)C | 4 nM
26 | CO[C@@H](C(=O)N[C@H]1CCCCNC1=O)[C@H](O)[C@@H](O)[C@H](O)/C=C\C(C)C | 14 nM
27 | CO[C@@H](C(=O)N[C@H]1CCCCNC1=O)[C@H](O)[C@@H](O)[C@H](O)/C=C/C(C)C [BENGAMIDE E] | 3.8 nM

tested on: A549; experiment: Antiproliferative activity against human A549 cells after 96 hrs; conditions: A549, 96 h

Row | SMILES | IC50
28 | CO[C@@H](C(=O)N[C@H]1CCc2ccccc2NC1=O)[C@H](O)[C@@H](O)[C@H](O)/C=C/C(C)(C)C | 9 nM
29 | CO[C@@H](C(=O)N[C@H]1CC[C@@H](OC(=O)C2CCCCC2)CNC1=O)[C@H](O)[C@@H](O)[C@H](O)/C=C/C(C)(C)C | 13 nM

tested on: MDA-MB-435; experiment: Cytotoxicity against human MDA-MB-435 cells assessed as reduction in cell viability after 24 hrs by MTT assay; format: functional, cell-based; conditions: MDA-MB-435, 24 h

Row | SMILES | IC50
30 | CO[C@@H](C(=O)N[C@@H](C)C(=O)NCCOC(=O)C1CCCCC1)[C@H](O)[C@@H](O)[C@H](O)/C=C/C(C)(C)C | 4 nM
